Test results reported in US11180487B2, “Substituted cyanoindoline derivatives as NIK inhibitors” (Janssen Pharmaceutica NV, priority 2016, dated 2021).
Read-outs that look alike come from different tables or passages of the source.

How the values were obtained:
[1] = tested on: KMS12-BM (NIK WT) multiple myeloma cells; assay: Antiproliferative activity on KMS12-BM multiple myeloma cells (CellTiter-Glo, 96 hr), Biological Assay C; format: cell-based, human; conditions: averaged values, read-out: KMS-12 Proliferation inhibition (IC50 (nM))
Summary of the method: (§1)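 JJN-3 and KMS12-BM cells in RPMI 1640 with 10% FCS were plated at 15000–20000 cells/well and treated 96 h with a 9-point 1:3 dilution series (0.3% DMSO). Viability read by CellTiter-Glo luminescence, blank (time-zero cells) subtracted, expressed as % of untreated control; duplicate wells.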

[2] = molecular target: recombinant human NF-kappaB-inducing kinase (NIK/MAP3K14) (Homo sapiens, UniProt Q99558); assay: Inhibition of auto-phosphorylation of recombinant human NIK/MAP3K14 activity (AlphaScreen), Biological Assay A; format: biochemical; conditions: averaged values over all measurements on all batches
Chain of recombinant human NF-kappaB-inducing kinase (NIK/MAP3K14) (Q99558 whole entry): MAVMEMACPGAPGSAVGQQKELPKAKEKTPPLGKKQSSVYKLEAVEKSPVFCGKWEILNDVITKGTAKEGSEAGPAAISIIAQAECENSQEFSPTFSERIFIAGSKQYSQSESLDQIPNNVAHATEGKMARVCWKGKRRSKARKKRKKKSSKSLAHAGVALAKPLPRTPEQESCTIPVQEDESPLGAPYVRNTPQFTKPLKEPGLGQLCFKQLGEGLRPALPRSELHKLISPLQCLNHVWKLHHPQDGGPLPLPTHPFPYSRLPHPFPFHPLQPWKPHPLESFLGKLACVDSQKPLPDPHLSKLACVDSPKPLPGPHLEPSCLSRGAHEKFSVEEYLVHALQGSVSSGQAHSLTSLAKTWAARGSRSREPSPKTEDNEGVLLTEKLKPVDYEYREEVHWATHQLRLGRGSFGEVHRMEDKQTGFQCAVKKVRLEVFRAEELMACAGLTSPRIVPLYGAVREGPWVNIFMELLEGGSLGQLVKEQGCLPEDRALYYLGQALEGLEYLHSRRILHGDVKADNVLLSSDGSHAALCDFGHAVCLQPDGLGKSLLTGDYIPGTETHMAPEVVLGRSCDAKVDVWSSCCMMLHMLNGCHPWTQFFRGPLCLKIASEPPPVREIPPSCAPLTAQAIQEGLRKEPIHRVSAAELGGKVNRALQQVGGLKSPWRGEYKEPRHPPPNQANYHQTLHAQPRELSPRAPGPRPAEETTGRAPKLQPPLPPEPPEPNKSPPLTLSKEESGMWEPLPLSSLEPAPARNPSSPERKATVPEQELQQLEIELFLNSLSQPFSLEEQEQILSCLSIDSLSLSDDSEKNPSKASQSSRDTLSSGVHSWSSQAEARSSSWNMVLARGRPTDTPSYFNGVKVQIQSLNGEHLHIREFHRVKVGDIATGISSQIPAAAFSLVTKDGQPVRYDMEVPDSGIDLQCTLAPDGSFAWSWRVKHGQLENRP
Summary of the method: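 GST-tagged enzyme (0.2 nM) incubated with compound and 25 μM ATP in 50 mM Tris pH 7.5, 5 mM MgCl2, 1 mM EGTA, 1 mM DTT, 0.1 mM Na3VO4, 1% DMSO, 1 h at 25 °C. Stopped with anti-phospho-IKK Ser176/180 antibody; AlphaScreen bead read, blank-subtracted, IC50 from sigmoidal fit.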

[3] = tested on: P-IKKα levels in L363 (NIK translocated multiple myeloma) cells; assay: Effect of compounds on P-IKKα levels in L363 cells (Mesoscale sandwich immuno-assay), Biological Assay B; format: cell-based, human; conditions: 2 hr treatment, averaged values, read-out: Inhibition of pIKKα_L-363 (IC50 (nM))
Description: Effect of Compounds on P-IKKα Levels in L363 (NIK Translocated Multiple Myeloma) Cells
All compounds tested were dissolved in DMSO and further dilutions were made in culture medium. Final DMSO concentration was 1% (v/v) in cell assays. The human L363 cells (ATCC) were cultured in RPMI 1640 medium supplemented with GlutaMax and 10% fetal calf serum (PAA). Cells were routinely maintained at densities of 0.2×10^6 cells per ml-1×10^6 cells per ml at 37° C. in a humidified 5% CO2 atmosphere. Cells were passaged twice a week splitting back to obtain the low density. Cells were seeded in 96 well plates (Nunc 167008) at 2×10^6 per ml media in a volume of 75 μl per well plus 25 μl 1 μg/ml recombinant human B-cell activating factor (BAFF/BLyS/TNFSF13B). Seeded cells were incubated at 37° C. in a humidified 5% CO2 atmosphere for 24 hr. Drugs and/or solvents were added (20 μl) to a final volume of 120 μl. Following 2 hr treatment plates were removed from the incubator and cell lysis was achieved by the addition of 30 μl 5× lysis buffer followed by shaking on a plate shaker at 4° C. for 10 min. At the end of this incubation lysed cells were centrifuged at 800×g for 20 min at 4° C. and the lysate was assessed for P-IKKα levels by sandwich immuno-assay carried out in anti-rabbit antibody coated Mesoscale plates. Within an experiment, the results for each treatment were the mean of 2 replicate wells. For initial screening purposes, compounds were tested using an 8 point dilution curve (serial 1:3 dilutions). For each experiment, controls (containing MG132 and BAFF but no test drug) and a blank incubation (containing MG132 and BAFF and 10 μM ADS125117, a test concentration known to give full inhibition) were run in parallel. The blank incubation value was subtracted from all control and sample values. To determine the IC50 a sigmoidal curve was fitted to the plot of % inhibition of control P-IKKα levels versus Log10 compound concentration.
Note: Compounds 237 and 238 were tested at a maximum top concentration of 823 nM.

[4] = tested on: JJN-3 (NIK translocated) multiple myeloma cells; assay: Antiproliferative activity on JJN-3 multiple myeloma cells (CellTiter-Glo, 96 hr), Biological Assay C; format: cell-based, human; conditions: JJN-3 (NIK translocated) cells, averaged values, read-out: JJN-3 Proliferation inhibition (IC50 (nM))
Summary of the method: as §1

Row | SMILES | IC50 ([1]; Homo sapiens, KMS-12-BM, 96 h) | IC50 [2] | IC50 ([3]; Homo sapiens, L-363, 2 h) | IC50 ([4]; Homo sapiens, JJN-3, 96 h) | IC50 [1] | IC50 [3] | IC50 [4]
1 | C[C@]1(CO)CNc2c(C#N)cc(-c3ccnc(Nc4ccc(S(C)(=O)=O)cc4CCC4CC4)n3)cc21 [Compound 2] | > 10000 nM | 4.3 nM | 4.8 nM | 58 nM |  |  | 
2 | CCCCCc1cc(S(C)(=O)=O)ccc1Nc1nccc(-c2cc(C#N)c3c(c2)[C@@](C)(CO)CN3)n1 [Compound 3] | > 10000 nM | 10.2 nM | 15.1 nM | 115 nM |  |  | 
3 | CNC(=O)c1ccc(C)c(Nc2nccc(-c3cc(C#N)c4c(c3)[C@@](C)(CO)CN4)n2)c1 [Compound 4] | > 10000 nM | 4.2 nM | 20.9 nM | 759 nM |  |  | 
4 | C[C@]1(CO)CNc2c(C#N)cc(-c3ccnc(Nc4cc(C#N)ccc4OC4CC4)n3)cc21 [Compound 10] | 1230 nM | 7.4 nM | 11.5 nM | 67 nM |  |  | 
5 | Cc1cc(F)c(C#N)cc1Nc1nccc(-c2cc(C#N)c3c(c2)[C@@](C)(CO)CN3)n1 [Compound 11] | > 10000 nM | 1.8 nM | 6 nM | 617 nM |  |  | 
6 | CC(C)(O)COc1ccc(C#N)cc1Nc1nccc(-c2cc(C#N)c3c(c2)[C@@](C)(CO)CN3)n1 [Compound 12] | 4900 nM | 4.1 nM | 25.7 nM | 138 nM |  |  | 
7 | Cc1cc(P(C)(C)=O)c(Cl)cc1Nc1nccc(-c2cc(C#N)c3c(c2)[C@@](C)(CO)CN3)n1 [Compound 20] | ~1580 nM | 1.7 nM | 11.5 nM | 63 nM |  |  | 
8 | COc1cc(C(=O)NC2CCOCC2)ccc1Nc1nccc(-c2cc(C#N)c3c(c2)C(C)(CO)CN3)n1 (stereo not drawn) [Compound 21] | 891 nM | 2.5 nM | 4.5 nM | 51 nM |  |  | 
9 | COc1cc(N2CCC(N(C)C)CC2)c(Cl)cc1Nc1nccc(-c2cc(C#N)c3c(c2)C(C)(CO)CN3)n1 (stereo not drawn) [Compound 22] | 631 nM | 2.5 nM | 11.5 nM | 7 nM |  |  | 
10 | COc1cc(CO)c(Cl)cc1Nc1nccc(-c2cc(C#N)c3c(c2)C(C)(CO)CN3)n1 (stereo not drawn) [Compound 24] | 2820 nM | 4.5 nM | 6 nM | 13 nM |  |  | 
11 | CN1CCC(Oc2ccc(Cl)cc2Nc2nccc(-c3cc(C#N)c4c(c3)C(C)(CO)CN4)n2)CC1 (stereo not drawn) [Compound 25] | 589 nM | 3.6 nM | 33.9 nM | 12 nM |  |  | 
12 | Cc1c(NC(=O)C2CCN(C)CC2)cc(Cl)cc1Nc1nccc(-c2cc(C#N)c3c(c2)[C@@](C)(CO)CN3)n1 [Compound 68] | 1480 nM | 0.8 nM | 1.9 nM | 16 nM |  |  | 
13 | Cc1cc(C(=O)NC2CCOCC2)ccc1Nc1nccc(-c2cc(C#N)c3c(c2)C(C)(C)CN3)n1 [Compound 78] | 2040 nM | 2.7 nM | 7.9 nM | 87 nM |  |  | 
14 | COc1cc(N2CCOCC2)c(Cl)cc1Nc1nccc(-c2cc(C#N)c3c(c2)C(C)(C)CN3)n1 [Compound 79] | ~5130 nM | 47.9 nM | 75.9 nM | 91 nM |  |  | 
15 | COc1cc(OCC(=O)N(C)C)c(Cl)cc1Nc1nccc(-c2cc(C#N)c3c(c2)C(C)(C)CN3)n1 [Compound 82] | > 10000 nM | 7.6 nM | 5.3 nM | 22 nM |  |  | 
16 | COc1cc(CO)c(Cl)cc1Nc1nccc(-c2cc(C#N)c3c(c2)C(C)(C)CN3)n1 [Compound 84] | ~7590 nM | 19.1 nM | 12.9 nM | 251 nM |  |  | 
17 | COc1cc(S(C)(=O)=O)c(Cl)cc1Nc1nccc(-c2cc(C#N)c3c(c2)C(C)(C)CN3)n1 [Compound 85] | > 10000 nM | 11.3 nM | 41.7 nM | 57 nM |  |  | 
18 | CCN1CCN(Cc2cc(OC)c(Nc3nccc(-c4cc(C#N)c5c(c4)C(C)(C)CN5)n3)cc2Cl)CC1 [Compound 87] | 1180 nM | 7.1 nM | 93.3 nM | 35 nM |  |  | 

Row | SMILES | IC50 ([1]; Homo sapiens, KMS-12-BM, 96 h) | IC50 [2] | IC50 ([3]; Homo sapiens, L-363, 2 h) | IC50 ([4]; Homo sapiens, JJN-3, 96 h) | IC50 [1] | IC50 [3] | IC50 [4]
19 | Cc1ccc(C#N)cc1Nc1nccc(-c2cc(C#N)c3c(c2)[C@@](C)(CO)CN3)n1 [Compound 134] |  | 0.9 nM |  |  | 5500 nM | 2.8 nM | 91 nM
20 | Cc1ccc(C#N)cc1Nc1nccc(-c2cc(C#N)c3c(c2)[C@@](C)(COC(=O)[C@H](C)N)CN3)n1 [Compound 138] | ~4790 nM | 11.2 nM | 2.1 nM | 102 nM |  |  | 
21 | Cc1ccc(C#N)cc1Nc1nccc(-c2cc(C#N)c3c(c2)[C@](C)(COS(=O)(=O)O)CN3)n1 [Compound 144] | > 10000 nM | 5.8 nM | ~1170 nM | ~10000 nM |  |  | 
22 | Cc1ccc(C#N)cc1Nc1ncc(F)c(-c2cc(C#N)c3c(c2)[C@@](C)(CO)CN3)n1 [Compound 147] | > 10000 nM | 3.9 nM | 1.2 nM | 302 nM |  |  | 
23 | [2H]C([2H])(O)c1cc(Nc2nccc(-c3cc(C#N)c4c(c3)[C@@](C)(CO)CN4)n2)c(C)cc1F [Compound 148] | > 10000 nM | 4.7 nM | 8.9 nM | 523 nM |  |  | 
24 | [2H]C([2H])(O)c1ccc(C)c(Nc2nccc(-c3cc(C#N)c4c(c3)[C@@](C)(CO)CN4)n2)c1 [Compound 150] | > 10000 nM | 0.8 nM | 2.2 nM | 91 nM |  |  | 
25 | Cc1cc(F)c(CO)cc1Nc1nccc(-c2cc(C#N)c3c(c2)[C@@](C)(CO)CN3)n1 [Compound 152] | > 10000 nM | 2.3 nM | 7.8 nM | 272 nM |  |  | 
26 | C[C@]1(CO)CNc2c(C#N)cc(-c3ccnc(Nc4cc(C#N)ccc4CO)n3)cc21 [Compound 153] | > 10000 nM | 1.3 nM | 6.3 nM | 240 nM |  |  | 
27 | CC(C)Oc1ccc(CO)cc1Nc1nccc(-c2cc(C#N)c3c(c2)[C@@](C)(CO)CN3)n1 [Compound 154] | > 10000 nM | 1.4 nM | 6.6 nM | 141 nM |  |  | 
28 | Cc1ccc(C(=O)NCCN2CCCC2)cc1Nc1nccc(-c2cc(C#N)c3c(c2)[C@@](C)(CO)CN3)n1 [Compound 158] | > 10000 nM | 5.4 nM | 91.2 nM | 1230 nM |  |  | 
29 | CNC(=O)c1ccc(OC(C)C)c(Nc2nccc(-c3cc(C#N)c4c(c3)[C@@](C)(CO)CN4)n2)c1 [Compound 162] | > 10000 nM | 5.5 nM | 19.5 nM | 288 nM |  |  | 
30 | Cc1cc(CCN2CCOCC2)c(C#N)cc1Nc1nccc(-c2cc(C#N)c3c(c2)[C@@](C)(CO)CN3)n1 [Compound 173] | > 10000 nM | 1.8 nM | 1.3 nM | 29 nM |  |  | 
31 | CCC(=O)NCC#Cc1cc(C)c(Nc2nccc(-c3cc(C#N)c4c(c3)[C@@](C)(CO)CN4)n2)cc1C#N [Compound 176] | > 10000 nM | 3.8 nM | 5.9 nM | 91 nM |  |  | 
32 | CC(=O)NCCCOc1ccc(C#N)cc1Nc1nccc(-c2cc(C#N)c3c(c2)[C@@](C)(CO)CN3)n1 [Compound 181] | > 10000 nM | 5.1 nM | 7.8 nM | 195 nM |  |  | 
33 | Cc1ccc(CO)cc1Nc1nccc(-c2cc(C#N)c3c(c2)C(C)(CO)CN3)n1 (stereo not drawn) [Compound 215] | > 10000 nM | 1.5 nM | 2.9 nM | 199 nM |  |  | 
34 | Cc1ccc(CN2CCOCC2)c(Nc2nccc(-c3cc(C#N)c4c(c3)[C@@](C)(CO)CN4)n2)c1 [Compound 222] |  | 31.6 nM | 302 nM |  |  |  | 
35 | CN1CCC(Oc2ccc(C#N)cc2Nc2nccc(-c3cc(C#N)c4c(c3)[C@@](C)(CO)CN4)n2)C(F)C1 (stereo partly drawn) [Compound 230] | > 10000 nM | 6.3 nM | 7.7 nM | 46 nM |  |  | 
